In US9255090B2, “Heterocyclyl derivatives and their use as prostaglandin D2 receptor modulators” (Actelion Pharmaceuticals Ltd., priority 2012, dated 2016) one finds IC50 data, which are given here for 21 compounds.

The subject of experiment [1] is eosinophils. The experiment in a line: Eosinophil shape change assay with human plasma. Format: cell-based. The settings on record: Homo sapiens, Eosinophil, human plasma (50%), PGD2 100 nM activation, antagonistic activity. An excerpt: Eosinophil Shape Change Assay with Human Plasma
After obtaining informed consent, blood samples were drawn by venipuncture according to the protocol approved by the ethics committee of Basel, Switzerland. Polymorphonuclear leukocytes (containing eosinophils, basophils and neutrophils) were isolated using the Polymorphprep™ method (Axis-Shield). […] The polymorphonuclear cell fraction was harvested and depleted for erythrocytes by hypotonic saline lysis.
The polymorphonuclear cells were resuspended in assay buffer (1×PBS with Ca^2+/Mg^2+ supplemented with 0.1% BSA, 10 mM HEPES, and 10 mM Glucose, pH 7.4) at 5×10^6 cells/ml and stained with anti-CD49d-APC ((APC=Allophycocyanin) for 1 hour at RT. Test compounds, at various concentrations, were preincubated 10 min in human plasma (anticoagulated with a thrombin inhibitor). Then, human plasma was added to the polymorphonuclear cells to 50% of final assay volume with polymorphonuclear cells at 4×10^6 cells/ml. After incubation for 10 minutes at 37° C., the polymorphonuclear cells were activated for 5 min at 37° C. by addition of PGD2 at 100 nM final concentration. Activation was stopped by addition of 0.5 ml paraformaldehyde (1%).
Immediately after fixation with paraformaldehyde, the samples were analyzed by FACSCanto flow cytometer (BD Biosciences) and target cells were identified by their forward-scatter (FSC) and side-scatter (SSC) characteristics. Eosinophils were identified by the anti-CD49d-APC signal and their characteristic side-scatter (SSC) profile. Shape change responses, indicative of eosinophil activation, were quantified as the percent of cells with an increased forward-scatter.

Experiment [2] addresses hCRTH2 receptor (Homo sapiens (Human), UniProt Q9Y5Y4). The experiment in a line: hCRTH2 receptor membranes radioligand (3H-PGD2) displacement assay. Format: binding. The settings on record: 3H-PGD2 radioligand displacement, HEK293-hCRTH2 membranes. In a few lines: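 HEK293-hCRTH2 membranes, 20 μg/well; 3H-PGD2 added at 2.5 nM; binding buffer 50 mM Tris, 10 mM MnCl2, 1 mM EDTA, pH 7.0; 90 min RT; GF/C filtration, scintillation count. Nonspecific binding: PGD2 at […].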

Sequence of hCRTH2 receptor (Q9Y5Y4 whole entry): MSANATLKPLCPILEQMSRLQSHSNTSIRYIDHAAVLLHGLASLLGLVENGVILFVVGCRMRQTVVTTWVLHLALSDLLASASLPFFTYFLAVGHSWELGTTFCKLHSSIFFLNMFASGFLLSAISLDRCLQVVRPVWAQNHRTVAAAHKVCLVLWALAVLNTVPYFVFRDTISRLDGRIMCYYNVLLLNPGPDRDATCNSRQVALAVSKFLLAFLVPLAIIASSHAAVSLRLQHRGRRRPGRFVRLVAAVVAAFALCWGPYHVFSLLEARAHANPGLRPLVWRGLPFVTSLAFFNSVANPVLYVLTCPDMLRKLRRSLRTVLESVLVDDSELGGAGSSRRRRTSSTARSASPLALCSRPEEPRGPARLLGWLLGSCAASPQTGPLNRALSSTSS

One may read the IC50 as the concentration that inhibits the measured activity by half. High values mean weaker potency in that assay, low ones greater potency in that assay. As to `CCOc1ccc(CC(=O)O)cc1-c1ccc(F)c2c1CN(C(=O)OC[C@H](C)c1ccccc1)CC2` [Example 374, 8-(5-Carboxymethyl-2-ethoxy-phenyl)-5-fluoro-3,4-dihydro-1H-isoquinoline-2-carboxylic acid (R)-2-phenyl-propyl ester], the IC50 in experiment [1] worked out at 28 nM; in experiment [2], 4.2 nM.
On to `COc1ccc(CC(=O)O)cc1-c1ccc(F)c2c1CN(C(=O)OCc1ccccc1)CC2` [Example 157, 8-(5-Carboxymethyl-2-methoxy-phenyl)-5-fluoro-3,4-dihydro-1H-isoquinoline-2-carboxylic acid benzyl ester], for which the values for the IC50 in experiment [1] and in experiment [2] were 153 nM and 11.7 nM, respectively.
For the compound `CCOc1ccc(CC(=O)O)cc1-c1ccc(F)c2c1CN(C(=O)CCc1ccc(F)cc1)CC2` [Example 310, (4-Ethoxy-3-{5-fluoro-2-[3-(4-fluoro-phenyl)-propionyl]-1,2,3,4-tetrahydro-isoquinolin-8-yl}-phenyl)-acetic acid], the IC50 in experiment [1] turned out to be 7 nM; in experiment [2] it was 1.7 nM.
Turning to `COc1cc(CC(=O)O)ccc1-c1ccc(F)c2c1CN(C(=O)CC(C)(C)c1ccc(F)cc1)CC2` [Example 358, (4-{5-Fluoro-2-[3-(4-fluoro-phenyl)-3-methyl-butyryl]-1,2,3,4-tetrahydro-isoquinolin-8-yl}-3-methoxy-phenyl)-acetic acid], the IC50 in experiment [1] amounted to 11 nM; in experiment [2], 1.1 nM.
In the case of `COc1ccc(CC(=O)O)cc1-c1ccc(F)c2c1CN(C(=O)COCc1ccccc1Cl)CC2` [Example 58, (3-{2-[2-(2-Chloro-benzyloxy)-acetyl]-5-fluoro-1,2,3,4-tetrahydro-isoquinolin-8-yl}-4-methoxy-phenyl)-acetic acid], the IC50 in experiment [1] is 122 nM; in experiment [2], 3.57 nM.
With `COc1ccc(CC(=O)O)cc1-c1ccc(F)c2c1CN(C(=O)OCc1ccccc1F)CC2` [Example 146, 8-(5-Carboxymethyl-2-methoxy-phenyl)-5-fluoro-3,4-dihydro-1H-isoquinoline-2-carboxylic acid 2-fluoro-benzyl ester], the 50% inhibitory concentration (IC50) came out at 266 nM in experiment [1] and 3.06 nM in experiment [2].
Take `CCOc1ccc(CC(=O)O)cc1-c1ccc(F)c2c1CN(C(=O)OCC1CC1)CC2` [Example 372, 8-(5-Carboxymethyl-2-ethoxy-phenyl)-5-fluoro-3,4-dihydro-1H-isoquinoline-2-carboxylic acid cyclopropylmethyl ester]: the IC50 in experiment [1] amounted to 149 nM; in experiment [2], 5.5 nM.
In the case of `CCOc1cc(CC(=O)O)ccc1-c1ccc(F)c2c1CN(C(=O)CC1(c3ccccc3)CC1)CC2` [Example 230, (3-Ethoxy-4-{5-fluoro-2-[2-(1-phenyl-cyclopropyl)-acetyl]-1,2,3,4-tetrahydro-isoquinolin-8-yl}-phenyl)-acetic acid], the IC50 in experiment [1] is 19 nM; in experiment [2], 1 nM.
As for `CCOc1ccc(CC(=O)O)cc1-c1ccc(F)c2c1CN(C(=O)OCC1CCCCC1)CC2` [Example 396, 8-(5-Carboxymethyl-2-ethoxy-phenyl)-5-fluoro-3,4-dihydro-1H-isoquinoline-2-carboxylic acid cyclohexylmethyl ester], the half-inhibitory concentration (IC50) amounted to 18 nM in experiment [1] and 2.6 nM in experiment [2].
The like results for `CCOc1ccc(CC(=O)O)cc1-c1ccc(F)c2c1CN(C(=O)OCc1cc(Cl)ccc1F)CC2` [Example 402, 8-(5-Carboxymethyl-2-ethoxy-phenyl)-5-fluoro-3,4-dihydro-1H-isoquinoline-2-carboxylic acid 5-chloro-2-fluoro-benzyl ester] were, in that order, 20 nM and 4.3 nM.
Consider `CCOc1cc(CC(=O)O)ccc1-c1ccc(F)c2c1CN(C(=O)OCC1CCCCC1)CC2` [Example 397, 8-(4-Carboxymethyl-2-ethoxy-phenyl)-5-fluoro-3,4-dihydro-1H-isoquinoline-2-carboxylic acid cyclohexylmethyl ester], for which the IC50 turned out to be 15 nM in experiment [1] and 6.8 nM in experiment [2].
The like results for `CCOc1cc(CC(=O)O)ccc1-c1ccc(F)c2c1CN(C(=O)O[C@@H](C)c1ccccc1)CC2` [Example 389, 8-(4-Carboxymethyl-2-ethoxy-phenyl)-5-fluoro-3,4-dihydro-1H-isoquinoline-2-carboxylic acid (S)-1-phenyl-ethyl ester] were, in that order, 122 nM and 16.7 nM.
With `CCOc1ccc(CC(=O)O)cc1-c1ccc(F)c2c1CN(C(=O)CC(C)c1cccc(C)n1)CC2` (racemic) [Example 328], the IC50 in experiment [1] is 15 nM; in experiment [2] it was 1.8 nM.
Take `CCOc1ccc(CC(=O)O)cc1-c1ccc(F)c2c1CN(C(=O)OCc1ccccc1F)CC2` [Example 400, 8-(5-Carboxymethyl-2-ethoxy-phenyl)-5-fluoro-3,4-dihydro-1H-isoquinoline-2-carboxylic acid 2-fluoro-benzyl ester]: the IC50 was determined as 21 nM in experiment [1] and 12.8 nM in experiment [2].
On to `COc1cc(CC(=O)O)ccc1-c1ccc(F)c2c1CN(C(=O)C[C@@H](C)c1ccccc1)CC2` [Example 189, {4-[5-Fluoro-2-((R)-3-phenyl-butyryl)-1,2,3,4-tetrahydro-isoquinolin-8-yl]-3-methoxy-phenyl}-acetic acid], for which the IC50 in experiment [1] turned out to be 62 nM; in experiment [2], 1.04 nM.
In the case of `COc1ccc(CC(=O)O)cc1-c1ccc(F)c2c1CN(C(=O)CCc1ccccc1)CC2` [Example 54, {3-[5-Fluoro-2-(3-phenyl-propionyl)-1,2,3,4-tetrahydro-isoquinolin-8-yl]-4-methoxy-phenyl}-acetic acid], the IC50 was 184 nM in experiment [1] and 5.83 nM in experiment [2].
For `CCOc1ccc(CC(=O)O)cc1-c1ccc(F)c2c1CN(C(=O)CC(C)c1ccccn1)CC2` (racemic) [Example 345], the half-inhibitory concentration (IC50) was 31 nM in experiment [1] and 4.8 nM in experiment [2].
With `COc1ccc(CC(=O)O)cc1-c1ccc(C#N)c2c1CN(C(=O)OCc1ccccc1)CC2` [Example 169, 8-(5-Carboxymethyl-2-methoxy-phenyl)-5-cyano-3,4-dihydro-1H-isoquinoline-2-carboxylic acid benzyl ester], the IC50 in experiment [1] amounted to 146 nM; in experiment [2] it was 9.17 nM.
On to `O=C(O)Cc1ccc(OC(F)F)c(-c2ccc(F)c3c2CN(C(=O)OCc2ccccc2)CC3)c1` [Example 412, 8-(5-Carboxymethyl-2-difluoromethoxy-phenyl)-5-fluoro-3,4-dihydro-1H-isoquinoline-2-carboxylic acid benzyl ester], for which the half-maximal inhibitory concentration (IC50) in experiment [1] is 47 nM; in experiment [2], 1.8 nM.
The like results for `CCOc1cc(CC(=O)O)ccc1-c1ccc(F)c2c1CN(C(=O)CC(C)(C)c1ccc(F)cc1)CC2` [Example 237, (3-Ethoxy-4-{5-fluoro-2-[3-(4-fluoro-phenyl)-3-methyl-butyryl]-1,2,3,4-tetrahydro-isoquinolin-8-yl}-phenyl)-acetic acid] were, in that order, 9 nM and 0.3 nM.
With `CCOc1ccc(CC(=O)O)cc1-c1ccc(F)c2c1CN(C(=O)NCc1ccccc1)CC2` [Example 438, [3-(2-Benzylcarbamoyl-5-fluoro-1,2,3,4-tetrahydro-isoquinolin-8-yl)-4-ethoxy-phenyl]-acetic acid], the results for the IC50 in experiment [1] and in experiment [2] were 14 nM and 3.7 nM, respectively.
